The values below come from ChEMBL document CHEMBL5390217, “Structure Confirmation of Dechlorotrichotoxin A through Stereoselective Total Synthesis” (2023).

The source made the active and inactive calls. The rule behind the calls is not given here.

For experiment [1], the system named is MCF7. The experiment is described as follows: Antiproliferative activity against human MCF7 cells assessed as inhibition of cell growth at 30 uM incubated for 48 hrs in presence of 10% FBS by CCK-8 assay relative to control. Also on record: scale not given: the % may be the effect or the level left. It is filed as functional. For orientation: Tetrazolium assays rely on reduction of a dye to a coloured formazan, in cell work by metabolically active cells.

Experiment [2] concerns U-937. The experiment is described as follows: Antiproliferative activity against human U-937 cells assessed as inhibition of cell growth at 30 uM incubated for 48 hrs in presence of 10% FBS by CCK-8 assay relative to control. It is filed as functional. More on the design: scale not given: the % may be the effect or the level left.
In experiment [3] the test system is MCF7. Briefly: Antiproliferative activity against human MCF7 cells assessed as inhibition of cell growth at 30 uM incubated for 48 hrs in presence of 10% FBS by CCK-8 assay. It is filed as functional, cell-based.

For `C=CC[C@@H](O)/C(C)=C/[C@@H](C)CCC(=C)Cc1ccccc1`, the values for the Activity in experiment [1] and in experiment [2] were 21% and 44%, respectively.

For `C=CC[C@@H](O)/C(C)=C/[C@@H](C)CCC(=CCl)Cc1ccccc1` (mixture of isomers), the Activity in experiment [2] was 20%. Also, the outcome in experiment [3] was inactive.
